What was measured:
[1] = system: ID188 patient-derived PDAC 2D line (pre-FOLFIRINOX); assay: normalised area under dose-response curve (viability relative to DMSO, 7 doses up to 10 µM) (fraction (AUC)); higher = less sensitive (more viability retained); conditions: 72 h; top dose: 10 µM
Protocol: (§1)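 Patient-derived 2D PDAC cells (ID188 pre-FOLFIRINOX, passage 5+27; ID211 post-FOLFIRINOX, passage 9+11), 1,500-3,000 cells/well in 96-well plates, were treated with a 415-compound Selleck library in seven concentrations (3-fold dilution series, top 10 µM) for 72 h. Viability was read by CellTiter-Glo ATP luminescence, normalised to the DMSO control, and the area under the dose-response curve was computed with the GRmetrics R package; a lower AUC means higher sensitivity.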

[2] = system: ID211 patient-derived PDAC 2D line (post-FOLFIRINOX); assay: as above; conditions: 72 h; top dose: 10 µM
Protocol: as §1

C/C(=N\NC(=S)N1CCC1)c1ccccn1
normalised area under dose-response curve [1]: 0.366
normalised area under dose-response curve [2]: 0.138

C=CC(=O)N1CCC[C@@H](n2nc(-c3ccc(Oc4ccccc4)cc3)c3c(N)ncnc32)C1
normalised area under dose-response curve [1]: 0.794
normalised area under dose-response curve [2]: 0.71

CC(C)Oc1ccc(C(=O)N[C@H](CNC(=O)CN(C)C)Cc2ccc(-c3cn4cccc([C@H](C)O)c4n3)cc2)cc1Cl
normalised area under dose-response curve [1]: 0.64
normalised area under dose-response curve [2]: 0.709

CCn1c(-c2nonc2N)nc2c(C#CC(C)(C)O)ncc(OC[C@H]3CCCNC3)c21
normalised area under dose-response curve [1]: 0.83
normalised area under dose-response curve [2]: 0.836

CN1CCN(C(=O)/C=C/c2ccc([N+](=O)[O-])o2)CC1
normalised area under dose-response curve [1]: 0.954
normalised area under dose-response curve [2]: 0.937

CNC(=O)c1nn(C)c2c1C(C)(C)Cc1cnc(Nc3ccc(N4CCN(C)CC4)cc3)nc1-2
normalised area under dose-response curve [1]: 0.776
normalised area under dose-response curve [2]: 0.783

COc1ccc(-c2ccc3c(N4CCOCC4)nc(N4C[C@@H](C)O[C@@H](C)C4)nc3n2)cc1CO
normalised area under dose-response curve [1]: 0.825
normalised area under dose-response curve [2]: 0.831

CS(=O)(=O)CCNCc1ccc(-c2ccc3ncnc(Nc4ccc(OCc5cccc(F)c5)c(Cl)c4)c3c2)o1
normalised area under dose-response curve [1]: 0.924
normalised area under dose-response curve [2]: 0.614

C[C@@H](Oc1cc(-n2cnc3ccc(CN4CCN(C)CC4)cc32)sc1C(N)=O)c1ccccc1C(F)(F)F
normalised area under dose-response curve [1]: 0.687
normalised area under dose-response curve [2]: 0.726

C[C@@H]1CN(CC(=O)Nc2ccc3c(c2)Cc2cccc(-c4cc(=O)cc(N5CCOCC5)o4)c2S3)C[C@H](C)O1
normalised area under dose-response curve [1]: 0.936
normalised area under dose-response curve [2]: 0.842

Cc1ccc(C(=O)N(CCCN)[C@@H](c2nc3cc(Cl)ccc3c(=O)n2Cc2ccccc2)C(C)C)cc1
normalised area under dose-response curve [1]: 0.5
normalised area under dose-response curve [2]: 0.697

Cc1ccc2nc(CN(CCN(Cc3nc4ccc(C)cc4[nH]3)Cc3nc4ccc(C)cc4[nH]3)Cc3nc4ccc(C)cc4[nH]3)[nH]c2c1
normalised area under dose-response curve [1]: 1.03
normalised area under dose-response curve [2]: 0.676

Cc1cccc(CC(=O)N2CCc3c2ccc(-c2cn(C)c4ncnc(N)c24)c3F)n1
normalised area under dose-response curve [1]: 0.87
normalised area under dose-response curve [2]: 0.959

Cc1ncc(Cl)cc1NCc1ccc(C(=O)N[C@@H](CC2CCCC2)C(=O)NC2CC2)s1
normalised area under dose-response curve [1]: 0.923
normalised area under dose-response curve [2]: 0.865

Cn1cc(-c2cnn3c(N)c(Br)c([C@@H]4CCCNC4)nc23)cn1
normalised area under dose-response curve [1]: 0.873
normalised area under dose-response curve [2]: 0.9

Cn1cc(/C=C2\C(=O)Nc3cccnc32)c2ccccc21
normalised area under dose-response curve [1]: 0.94
normalised area under dose-response curve [2]: 0.914

O=C(O)c1ccc(-c2c[nH]c3ncc(-c4ccccc4)cc23)cc1C1CCCC1
normalised area under dose-response curve [1]: 0.924
normalised area under dose-response curve [2]: 0.913

O=C(c1cc(Cc2n[nH]c(=O)c3ccccc23)ccc1F)N1CCN(C(=O)C2CC2)CC1
normalised area under dose-response curve [1]: 0.917
normalised area under dose-response curve [2]: 0.865

O=C1NC(=O)C(c2cnc3ccccn23)=C1c1cn2c3c(cc(F)cc13)CN(C(=O)N1CCCCC1)CC2
normalised area under dose-response curve [1]: 1.04
normalised area under dose-response curve [2]: 0.259

O=S(=O)(O)c1ccc2cc(N=Nc3cc(S(=O)(=O)O)c4cccnc4c3O)ccc2c1
normalised area under dose-response curve [1]: 0.938
normalised area under dose-response curve [2]: 0.831

O=c1cc(-c2cccc3c2Sc2ccccc2S3)oc(N2CCOCC2)c1
normalised area under dose-response curve [1]: 0.945
normalised area under dose-response curve [2]: 0.834

O=c1cc(N2CCOCC2)oc2c(-c3cccc4c3sc3ccccc34)cccc12
normalised area under dose-response curve [1]: 0.991
normalised area under dose-response curve [2]: 0.878

c1ccc(-c2nn3c(c2-c2ccnc4cc(OCCN5CCOCC5)ccc24)CCC3)nc1
normalised area under dose-response curve [1]: 0.974
normalised area under dose-response curve [2]: 0.861

c1ccc2c(CCNc3ccc(Nc4ccncc4)cc3)c[nH]c2c1
normalised area under dose-response curve [1]: 0.88
normalised area under dose-response curve [2]: 0.796

Reference: the supplement of paper PMC8988213
